Experimental data as given in the supplement of paper PMC9663587.

Legend:
Assay in all cases: GRmax, 72 h; higher = less effect;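 also: breast cell lines in 384-well plates, nine doses across a 10^4 range, Dye Drop imaging of viable cells vs DMSO and time-zero plates, GR 0 means no net growth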
AU565 = tested on: AU565
BT20 = tested on: BT20
BT549 = tested on: BT549
EFM19 = tested on: EFM19
HCC1187 = tested on: HCC1187
HCC1569 = tested on: HCC1569
HTERT_HME1 = tested on: HTERT_HME1
MCF10A = tested on: MCF10A
MDAMB330 = tested on: MDAMB330
MDAMB415 = tested on: MDAMB415
MDAMB436 = tested on: MDAMB436
SUM44PE = tested on: SUM44PE
UACC812 = tested on: UACC812
UACC893 = tested on: UACC893
ZR751 = tested on: ZR751

In the case of `CN1CCN(C(=O)c2ccc3cc(CCNc4ncnc5ccc(C#N)cc45)ccc3c2)CC1` [senexin b] (max 10 µM), the “GRmax, 72 h” value (AU565) is reported as 0.76 GR, the “GRmax, 72 h” value (BT20) is reported as 0.175 GR and the “GRmax, 72 h” value (BT549) is reported as 0.675 GR. For the same compound, the “GRmax, 72 h” value (EFM19) was 0.629 GR, the “GRmax, 72 h” value (HCC1187) was 1.62 GR and the “GRmax, 72 h” value (HCC1569) was 0.514 GR. For the same compound, the “GRmax, 72 h” value (HTERT_HME1) was 0.748 GR, the “GRmax, 72 h” value (MCF10A) was 0.851 GR and the “GRmax, 72 h” value (MDAMB330) was 0.466 GR. The “GRmax, 72 h” value (MDAMB415) was 0.609 GR, the “GRmax, 72 h” value (MDAMB436) was 0.429 GR and the “GRmax, 72 h” value (SUM44PE) was 0.309 GR. For the same compound, the “GRmax, 72 h” value (UACC812) was 0.248 GR, the “GRmax, 72 h” value (UACC893) was 0.71 GR and the “GRmax, 72 h” value (ZR751) was 0.845 GR.
